Where “and” joins values, the source holds several entries; their conditions need not be identical. Identical values can stand only once.
What was measured:
[1] = Acute toxicity in CD-1 mouse assessed as viability at 150 mg/kg, ip measured up to 14 days; format: organism-based; details: in vivo
[2] = tested on: Rattus norvegicus; assay: Antiinflammatory activity in rat carrageenan-induced paw edema model assessed as inhibition of paw swelling at 25 mg/kg, ip administered 30 mins prior to carrageenan challenge measured after 3 hrs; format: functional
[3] = tested on: Rattus norvegicus; assay: Antiinflammatory activity in rat carrageenan-induced paw edema model assessed as inhibition of paw swelling at 25 mg/kg, ip administered 30 mins prior to carrageenan challenge measured after 5 hrs; format: functional
[4] = tested on: Rattus norvegicus; assay: Analgesic activity in rat assessed as latent period prolongation at 25 mg/kg, ip measured after 1 hr by hot plate test; format: functional
[5] = Acute toxicity in CD-1 mouse assessed as viability at 300 mg/kg, ip measured up to 14 days; format: organism-based; details: in vivo
[6] = Acute toxicity in CD-1 mouse assessed as viability at 100 mg/kg, ip measured up to 14 days; format: organism-based; details: in vivo
[7] = target: T1, Prostaglandin G/H synthase 1 (Ovis aries) (UniProt P05979); assay: Inhibition of ovine COX-1 assessed as reduction in PGG2 production using ADHP as substrate at 2 uM incubated for 5 mins followed by substrate addition measured after 2 mins by fluorescence assay
T1 sequence (whole entry): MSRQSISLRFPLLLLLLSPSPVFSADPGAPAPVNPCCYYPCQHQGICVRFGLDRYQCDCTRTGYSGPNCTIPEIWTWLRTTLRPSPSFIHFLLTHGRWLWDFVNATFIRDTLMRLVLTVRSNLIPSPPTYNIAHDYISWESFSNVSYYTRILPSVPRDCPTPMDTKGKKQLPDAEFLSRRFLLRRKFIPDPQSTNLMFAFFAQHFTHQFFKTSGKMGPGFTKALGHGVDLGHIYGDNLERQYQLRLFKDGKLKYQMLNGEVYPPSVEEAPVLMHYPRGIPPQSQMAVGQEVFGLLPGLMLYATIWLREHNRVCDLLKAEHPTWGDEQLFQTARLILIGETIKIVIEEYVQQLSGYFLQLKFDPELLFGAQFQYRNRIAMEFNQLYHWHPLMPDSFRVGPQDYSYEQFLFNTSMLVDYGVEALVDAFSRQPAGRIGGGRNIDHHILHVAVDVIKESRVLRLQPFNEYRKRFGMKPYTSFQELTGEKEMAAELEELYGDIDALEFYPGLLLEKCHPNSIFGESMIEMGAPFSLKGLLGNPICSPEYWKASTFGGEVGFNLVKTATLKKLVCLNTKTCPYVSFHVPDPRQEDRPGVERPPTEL

[8] = target: T1, Prostaglandin G/H synthase 1 (Ovis aries); assay: Inhibition of ovine COX-1 assessed as reduction in PGG2 production using ADHP as substrate at 200 uM incubated for 5 mins followed by substrate addition measured after 2 mins by fluorescence assay
[9] = Acute toxicity in CD-1 mouse assessed as viability at 50 mg/kg, ip measured up to 14 days; format: organism-based; details: in vivo, read-out: Activity
[10] = tested on: Rattus norvegicus; assay: Antiinflammatory activity in rat carrageenan-induced paw edema model assessed as inhibition of paw swelling at 50 mg/kg, ip administered 30 mins prior to carrageenan challenge measured after 3 hrs; format: functional
[11] = tested on: Rattus norvegicus; assay: Antiinflammatory activity in rat carrageenan-induced paw edema model assessed as inhibition of paw swelling at 50 mg/kg, ip administered 30 mins prior to carrageenan challenge measured after 5 hrs; format: functional
[12] = Permeability of the compound at pH 5 after 2 hrs by PAMPA; format: ADME; details: read-out: Peff
[13] = Permeability of the compound at pH 7.4 after 2 hrs by PAMPA; format: ADME; details: read-out: Peff
[14] = Permeability of the compound at pH 6.2 after 2 hrs by PAMPA; format: ADME; details: read-out: Peff
[15] = Acute toxicity in CD-1 mouse assessed as viability at 75 mg/kg, ip measured up to 14 days; format: organism-based; details: in vivo, read-out: Activity
[16] = Drug level in prisma HT buffer treated with 2-acetoxy-3,4,5,6-tetrafluorobenzoic acid at pH 5 to 7.4 by UV absorbance assay; format: toxicity
[17] = Drug level in prisma HT buffer treated with 2-acetoxy-3,4,5-trifluorobenzoic acid at pH 5 to 7.4 by UV absorbance assay; format: toxicity

| SMILES | survival at 336 h ([1]; read-out: Activity) | inhibition in vivo at 25 mg/kg [2] | inhibition in vivo at 25 mg/kg [3] | Activity [4] | survival at 336 h ([5]; read-out: Activity) | inhibition [7] | further results |
| --- | --- | --- | --- | --- | --- | --- | --- |
| CC(=O)Oc1cc(F)c(F)cc1C(=O)O | 100% |  |  |  |  |  |  |
| CC(=O)Oc1c(F)cc(F)c(F)c1C(=O)O |  | 37.3% | 32.7% | 86.5% |  |  |  |
| O=C(O)c1cc(F)c(F)cc1O | 66% |  |  | 60.6% | 33% |  | survival at 336 h ([6]; read-out: Activity): 100% |
| O=C(O)c1ccc(F)c(F)c1O | 66% |  |  |  | 33% |  | survival at 336 h ([6]; read-out: Activity): 66% |
| O=C(O)c1c(O)c(F)c(F)c(F)c1F [listing 1 of 2 here] |  |  |  |  |  | 34% and 59% | inhibition [8]: 39% and 31% |
| COc1c(C(=O)O)cc(F)c(F)c1F | 80% |  |  | 73.2% | 0% | < 10% | survival at 336 h [9]: 100%; inhibition in vivo at 50 mg/kg [10]: 40%; inhibition in vivo at 50 mg/kg [11]: 30% |
| O=C([O-])c1cc(F)c(F)c(F)c1O.[Na+] | 66% |  |  | 66.8% |  |  |  |
| COC(=O)c1c(O)c(F)c(F)c(F)c1F | 90% |  |  |  | 0% | 47% | survival at 336 h [9]: 100%; inhibition [8]: 48% |
| CC(=O)Oc1ccccc1C(=O)O [ASPIRIN] |  | 30.6 to 56.2% | 29.4 to 44.9% | 57.9% |  | 31% | Papp at 2 h [12]: 5.1 ×10⁻⁶ cm/s; Papp at 2 h [13]: 4.7 ×10⁻⁶ cm/s; inhibition [8]: 36%; survival at 336 h [1]: 100%; survival at 336 h [5]: 33%; survival at 336 h [6]: 100% |
| O=C(O)c1c(O)c(F)c(F)c(F)c1F [listing 2 of 2 here] |  |  | 33.1% | 143.2% | 0% |  | Papp at 2 h [12]: 18.6 ×10⁻⁶ cm/s; Papp at 2 h [14]: 0.5 ×10⁻⁶ cm/s; Papp at 2 h [13]: 0.1 ×10⁻⁶ cm/s; inhibition in vivo at 50 mg/kg [10]: 64%; inhibition in vivo at 50 mg/kg [11]: 56.5%; survival at 336 h [15]: 66%; Drug metabolism [16]: Metabolite_Notdetected |
| CC(=O)Oc1c(C(=O)O)ccc(F)c1F |  |  | 35.3% | 98.8% | 33% |  |  |
| COc1c(F)c(F)c(F)c(F)c1C(=O)O |  | 53.8% | 46.9% | 100.8% |  | 48% | inhibition [8]: 64% |
| O=C([O-])c1c(O)c(F)c(F)c(F)c1F.[Na+] |  |  |  |  |  |  | Papp at 2 h [12]: 22.1 ×10⁻⁶ cm/s; Papp at 2 h [14]: 1.8 ×10⁻⁶ cm/s; Papp at 2 h [13]: 0.1 ×10⁻⁶ cm/s |
| CC(=O)Oc1c(C(=O)O)cc(F)c(F)c1F | 70% |  |  | 71.2% | 0% | 35% | survival at 336 h [9]: 100%; inhibition [8]: 18% |
| CC(=O)Oc1c(F)c(F)c(F)c(F)c1C(=O)O | 80% | 42.9% | 56.8% | 83.2% | 0% |  | survival at 336 h [9]: 100%; inhibition in vivo at 50 mg/kg [10]: 65.6%; inhibition in vivo at 50 mg/kg [11]: 45.1% |
| O=C(O)c1cc(F)c(F)c(F)c1O |  |  |  | 178.1% | 0% |  | inhibition in vivo at 50 mg/kg [10]: 46.7%; inhibition in vivo at 50 mg/kg [11]: 46.9%; Drug metabolism [17]: Metabolite_Notdetected |
| O=C(O)Cc1ccccc1Nc1c(Cl)cccc1Cl [DICLOFENAC] |  | 64.4% | 54.4% | 56 - 102.3% |  |  |  |
| COC(=O)c1cc(F)c(F)c(F)c1O | 100% |  |  |  | 0% |  | inhibition in vivo at 50 mg/kg [10]: 40.3%; survival at 336 h ([6]; read-out: Activity): 100% |
| O=C(O)c1c(O)c(F)cc(F)c1F | 66% | 47% | 41.7% | 60.3% |  |  |  |
